“And” between values parts separate entries of the source, which are not always exact repeats. Identical values can stand only once. Like-named read-outs stand apart in the source and are kept apart here.
Experiments:
Test in all cases: Cell viability assay (MTT), dark and blue light
Assay type in all cases: cell-based, Human
[1] = tested on: MCF7 breast cancer cells; conditions: for Photosensitizing index (PI) MCF7: dark vs blue light 458 nm; for Photosensitizing index (PI): MCF7, dark vs blue light
Procedure, shortened: (§1)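 Two parallel arms: continuous 72 h dark exposure, or 8 h preincubation followed by 10 min blue light at 458 nm (9.6 W LEDs) and further dark incubation to 72 h. Final DMSO 0.1% (v/v); MTT formazan read at 570 nm, triplicate runs repeated at least three times.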

[2] = tested on: Scaber bladder cancer cells; conditions: for Photosensitizing index (PI) Scaber: dark vs blue light 458 nm
Procedure, shortened: as §1

[3] = tested on: A549 lung cancer cells; conditions: for Photosensitizing index (PI) A549: dark vs blue light 458 nm; for SI (vs NIH-3T3) A549 Blue: blue light 458 nm; for Photosensitizing index (PI): A549, dark vs blue light
Procedure, shortened: (§2)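 After overnight attachment, cells received the complexes for 72 h; a parallel set was irradiated for 10 min at 8 h and kept dark thereafter. MTT formazan was quantified at 570 nm.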

[4] = tested on: DU-145 prostate cancer cells (PSMA-negative); conditions: for Photosensitizing index (PI): DU145, dark vs blue light; for SI (vs MC3T3) DU145 Blue / SI (vs NIH-3T3) DU145 Blue: blue light 458 nm
Procedure, shortened: as §1

[5] = tested on: PC-3 prostate cancer cells (PSMA-negative); conditions: for Photosensitizing index (PI): PC3, dark vs blue light
Procedure, shortened: as §1

[6] = tested on: MiaPaCa2 pancreas cancer cells; conditions: for Photosensitizing index (PI): MiaPaCa2, dark vs blue light; for GI50: read-out: GI50
Procedure, shortened: as §2

[7] = 8 h in the dark, blue light 458 nm 10 min, then dark up to 72 h, read-out: GI50 MCF7 Blue
[8] = in the dark, 72 h, read-out: GI50 MCF7 Dark
[9] = 8 h in the dark, blue light 458 nm 10 min, then dark up to 72 h, read-out: GI50 Scaber Blue
[10] = in the dark, 72 h, read-out: GI50 Scaber Dark
[11] = 8 h in the dark, blue light 458 nm 10 min, then dark up to 72 h, read-out: GI50 A549 Blue
[12] = in the dark, 72 h, read-out: GI50 A549 Dark
[13] = 8 h in the dark, blue light 458 nm 10 min, then dark up to 72 h, read-out: GI50 DU145 Blue
[14] = DU145, blue light, read-out: GI50
[15] = in the dark, 72 h, read-out: GI50 DU145 Dark
[16] = 8 h in the dark, blue light 458 nm 10 min, then dark up to 72 h, read-out: GI50 PC-3 Blue
[17] = PC3, blue light, read-out: GI50
[18] = in the dark, 72 h, read-out: GI50 PC-3 Dark
[19] = A549, blue light, read-out: GI50

F[P-](F)(F)(F)(F)F.O=C(CCCC[C@@H]1SC[C@@H]2NC(=O)N[C@@H]21)NCCCn1cc[n+]2[c]1[Ir-3]13([c]4ccccc4-c4sc5ccccc5[n+]41)([c]1ccccc1-c1sc4ccccc4[n+]13)[n+]1ccccc1-2 [I-k]
GI50 [1, 7]: 1.5 µM
SI (vs NIH-3T3) MCF7 Blue ([1]; blue light 458 nm): 20.7
SI (vs MC3T3) MCF7 Dark ([1]; dark): 1.7
Photosensitizing index (PI) MCF7 [1]: 9.9
GI50 [1, 8]: 14.9 µM
GI50 [2, 9]: 1.8 µM
SI (vs MC3T3) Scaber Blue ([2]; blue light 458 nm): 10.7
SI (vs NIH-3T3) Scaber Blue ([2]; blue light 458 nm): 17.3
SI (vs MC3T3) Scaber Dark [2]: 1.0
SI (vs NIH-3T3) Scaber Dark [2]: 2.9
Photosensitizing index (PI) Scaber [2]: 14.4
GI50 [2, 10]: 25.9 µM
GI50 [3, 11]: 1.2 µM
SI (vs MC3T3) A549 Dark [3]: 2.1
Photosensitizing index (PI) A549 [3]: 10.2
GI50 [3, 12]: 12.2 µM

F[P-](F)(F)(F)(F)F.O=C(O)CC[C@H](NC(=O)N[C@@H](CCCCNC(=O)CCn1cc[n+]2[c]1[Ir-3]13([c]4cccc5ccc6ccc[n+]1c6c45)([c]1cccc4ccc5ccc[n+]3c5c14)[n+]1ccccc1-2)C(=O)O)C(=O)O [III-i]
GI50 [4, 13]: 8.2 µM
GI50 [4, 14]: 8.16 µM
Photosensitizing index (PI) [4]: 5.6
GI50 ([4]; DU145, dark, read-out: GI50): 45.3 µM
SI (vs MC3T3) DU145 Blue [4]: 5.0
SI (vs NIH-3T3) DU145 Blue [4]: 6.8
SI (vs NIH-3T3) DU145 Dark [4]: >2.2
GI50 [4, 15]: 45.3 µM
GI50 [5, 16]: 8.7 µM
GI50 [5, 17]: 8.72 µM
Photosensitizing index (PI) [5]: 6.6
GI50 ([5]; PC3, dark, read-out: GI50): 57.2 µM
SI (vs MC3T3) PC-3 Blue ([5]; blue light 458 nm): 4.7
SI (vs MC3T3) PC-3 Dark ([5]; dark): 4.4
SI (vs NIH-3T3) PC-3 Dark ([5]; dark): >1.7
GI50 [5, 18]: 57.2 µM

COC(=O)c1ccc2[n+](c1)[Ir-3]13([c]4ccccc4-2)([c]2ccccc2-c2ccc(C(=O)OC)c[n+]21)[c]1n(CCCNC(=O)CCCC[C@@H]2SC[C@@H]4NC(=O)N[C@@H]42)cc[n+]1-c1cccc[n+]13.F[P-](F)(F)(F)(F)F [I-e]
GI50 [1, 7]: 12.2 µM
SI (vs NIH-3T3) MCF7 Blue ([1]; blue light 458 nm): 11.1
SI (vs MC3T3) MCF7 Dark ([1]; dark): 0.4
SI (vs NIH-3T3) MCF7 Dark ([1]; dark): >1.7
Photosensitizing index (PI) MCF7 [1]: 11.9
GI50 [1, 8]: 145 µM
GI50 [2, 9]: 14.7 µM
SI (vs MC3T3) Scaber Dark [2]: <1
SI (vs NIH-3T3) Scaber Dark [2]: >2.5
Photosensitizing index (PI) Scaber [2]: >6.8
GI50 [2, 10]: > 100 µM
GI50 [3, 11]: 21.6 µM
SI (vs NIH-3T3) A549 Blue [3]: 6.3
SI (vs NIH-3T3) A549 Dark [3]: >2.3
Photosensitizing index (PI) A549 [3]: 5.0
GI50 [3, 12]: 107 µM

F[P-](F)(F)(F)(F)F.O=C(NCCCn1cc[n+]2[c]1[Ir-3]13([c]4cccc5ccc6ccc[n+]1c6c45)([c]1cccc4ccc5ccc[n+]3c5c14)[n+]1ccccc1-2)[c-]1cccc1.[Fe+2].c1cc[cH-]c1 [IV-i]
SI (vs NIH-3T3) ([1]; MCF7, blue light): 28.7
SI (vs MC3T3) ([1]; MCF7, dark): 1.9
SI (vs NIH-3T3) ([1]; MCF7, dark): 7.8
Photosensitizing index (PI) [1]: 8.5
GI50 ([1]; MCF7, dark, read-out: GI50): 5.3 µM
GI50 [5, 17]: 0.27 µM
SI (vs MC3T3) ([5]; PC3, dark): 1.7
SI (vs NIH-3T3) ([5]; PC3, dark): 7.0
Photosensitizing index (PI) [5]: 21.9
Photosensitizing index (PI) [6]: 5.1
SI (vs NIH-3T3) ([6]; MiapaCa2, blue light): 48.1
GI50 ([6]; MiapaCa2, blue light): 0.37 µM
SI (vs NIH-3T3) ([3]; A549, blue light): 17.8
GI50 [3, 19]: 1 µM
SI (vs MC3T3) ([3]; A549, dark): 2.2
Photosensitizing index (PI) [3]: 4.6
GI50 ([3]; A549, dark, read-out: GI50): 4.6 µM

F[P-](F)(F)(F)(F)F.O=C(CCCC[C@@H]1SC[C@@H]2NC(=O)N[C@@H]21)NCCCn1cc[n+]2[c]1[Ir-3]13([c]4ccccc4-c4ccc5ccccc5[n+]41)([c]1ccccc1-c1ccc4ccccc4[n+]13)[n+]1ccccc1-2 [I-g]
GI50 [1, 7]: 2.2 µM
SI (vs MC3T3) MCF7 Blue ([1]; blue light 458 nm): 14.3
SI (vs NIH-3T3) MCF7 Blue ([1]; blue light 458 nm): 28.0
SI (vs MC3T3) MCF7 Dark ([1]; dark): 4.0
Photosensitizing index (PI) MCF7 [1]: 6.3
GI50 [1, 8]: 13.8 µM
GI50 [2, 9]: 2.5 µM
SI (vs NIH-3T3) Scaber Blue ([2]; blue light 458 nm): 24.7
SI (vs MC3T3) Scaber Dark [2]: 3.9
Photosensitizing index (PI) Scaber [2]: 5.6
GI50 [2, 10]: 14.1 µM
GI50 [3, 11]: 1.5 µM
SI (vs NIH-3T3) A549 Blue [3]: 41.1
SI (vs MC3T3) A549 Dark [3]: 6.1
SI (vs NIH-3T3) A549 Dark [3]: 12.1
Photosensitizing index (PI) A549 [3]: 6.1
GI50 [3, 12]: 9.1 µM

F[P-](F)(F)(F)(F)F.O=C(NCCCn1cc[n+]2[c]1[Ir-3]13([c]4ccccc4-c4c5ccccc5cc[n+]41)([c]1ccccc1-c1c4ccccc4cc[n+]13)[n+]1ccccc1-2)[c-]1cccc1.[Fe+2].c1cc[cH-]c1 [IV-h]
SI (vs NIH-3T3) ([1]; MCF7, blue light): 15.7
SI (vs MC3T3) ([1]; MCF7, dark): 2.9
SI (vs NIH-3T3) ([1]; MCF7, dark): 2.2
Photosensitizing index (PI) [1]: 21.4
GI50 ([1]; MCF7, dark, read-out: GI50): 6 µM
SI (vs MC3T3) ([5]; PC3, blue light): 77.6
GI50 [5, 17]: 0.058 µM
SI (vs NIH-3T3) ([5]; PC3, dark): 10.2
Photosensitizing index (PI) [5]: 22.4
GI50 ([5]; PC3, dark, read-out: GI50): 1.3 µM
Photosensitizing index (PI) [6]: 24.6
SI (vs MC3T3) ([6]; MiapaCa2, blue light): 86.2
SI (vs NIH-3T3) ([6]; MiapaCa2, blue light): 63.8
SI (vs NIH-3T3) ([6]; MiapaCa2, dark): 7.8
GI50 ([6]; MiapaCa2, dark): 1.7 µM
GI50 [3, 19]: 0.27 µM
SI (vs MC3T3) ([3]; A549, dark): 3.4
Photosensitizing index (PI) [3]: 18.9

F[P-](F)(F)(F)(F)F.O=C(NCCCn1cc[n+]2[c]1[Ir-3]13([c]4ccccc4-c4sc5ccccc5[n+]41)([c]1ccccc1-c1sc4ccccc4[n+]13)[n+]1ccccc1-2)[c-]1cccc1.[Fe+2].c1cc[cH-]c1 [IV-k]
SI (vs MC3T3) ([1]; MCF7, blue light): 8.2
SI (vs NIH-3T3) ([1]; MCF7, blue light): 18.7
GI50 ([1]; MCF7, blue light, read-out: GI50): 0.62 µM
SI (vs MC3T3) ([1]; MCF7, dark): 1.8
SI (vs NIH-3T3) ([1]; MCF7, dark): 3.2
Photosensitizing index (PI) [1]: 9.4
GI50 ([1]; MCF7, dark, read-out: GI50): 6.8 µM and 5.8 µM
SI (vs MC3T3) ([5]; PC3, blue light): 37.0
SI (vs NIH-3T3) ([5]; PC3, dark): 17.3
Photosensitizing index (PI) [5]: 7.9
GI50 ([5]; PC3, dark, read-out: GI50): 1.1 µM
Photosensitizing index (PI) [6]: 6.9
SI (vs MC3T3) ([6]; MiapaCa2, blue light): 15.9
SI (vs NIH-3T3) ([6]; MiapaCa2, blue light): 36.3
GI50 ([6]; MiapaCa2, blue light): 0.32 µM
SI (vs NIH-3T3) ([6]; MiapaCa2, dark): 8.5
GI50 ([6]; MiapaCa2, dark): 2.2 µM
SI (vs MC3T3) ([3]; A549, blue light): 15.0
SI (vs NIH-3T3) ([3]; A549, blue light): 34.2
GI50 [3, 19]: 0.34 µM
SI (vs MC3T3) ([3]; A549, dark): 2.7
Photosensitizing index (PI) [3]: 11.2
GI50 ([3]; A549, dark, read-out: GI50): 3.8 µM

F[P-](F)(F)(F)(F)F.O=C(O)CC[C@H](NC(=O)N[C@@H](CCCCNC(=O)CCn1cc[n+]2[c]1[Ir-3]13([c]4ccccc4-c4sc5ccccc5[n+]41)([c]1ccccc1-c1sc4ccccc4[n+]13)[n+]1ccccc1-2)C(=O)O)C(=O)O [III-k]
GI50 [4, 13]: 2.2 µM
GI50 [4, 14]: 2.18 µM
Photosensitizing index (PI) [4]: 7.5
GI50 ([4]; DU145, dark, read-out: GI50): 16.3 µM
SI (vs MC3T3) DU145 Blue [4]: 15.5
SI (vs NIH-3T3) DU145 Blue [4]: 13.8
SI (vs NIH-3T3) DU145 Dark [4]: >6.1
GI50 [4, 15]: 16.3 µM
GI50 [5, 16]: 2.1 µM
GI50 [5, 17]: 2.1 µM
Photosensitizing index (PI) [5]: 4.6
GI50 ([5]; PC3, dark, read-out: GI50): 9.6 µM
SI (vs NIH-3T3) PC-3 Blue ([5]; blue light 458 nm): 14.3
SI (vs MC3T3) PC-3 Dark ([5]; dark): 9.9
GI50 [5, 18]: 9.8 µM
